Data published in BindingDB's records for patent US10744117 (The Scripps Research Institute; The University of Toledo, 2020).

Target: T1, Peroxisome proliferator-activated receptor gamma (Homo sapiens, UniProt P37231)
T1 sequence (P37231 whole entry): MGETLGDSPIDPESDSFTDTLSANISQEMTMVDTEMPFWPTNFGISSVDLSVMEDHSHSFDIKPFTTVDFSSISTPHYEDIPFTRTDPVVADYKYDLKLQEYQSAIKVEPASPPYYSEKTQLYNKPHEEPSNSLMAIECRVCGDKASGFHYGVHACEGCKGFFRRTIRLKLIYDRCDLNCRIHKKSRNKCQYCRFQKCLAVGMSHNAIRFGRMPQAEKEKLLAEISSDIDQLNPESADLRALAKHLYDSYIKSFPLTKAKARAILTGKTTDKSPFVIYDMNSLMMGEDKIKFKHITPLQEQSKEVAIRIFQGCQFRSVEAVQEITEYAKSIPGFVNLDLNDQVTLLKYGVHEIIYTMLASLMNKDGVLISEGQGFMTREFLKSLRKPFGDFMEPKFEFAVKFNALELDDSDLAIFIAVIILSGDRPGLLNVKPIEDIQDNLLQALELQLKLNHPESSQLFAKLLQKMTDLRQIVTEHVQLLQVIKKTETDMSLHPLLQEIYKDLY

- IC50: 15 µM
Compound: Cc1c(C)n(Cc2ccc(-c3ccc(Cl)c(O[C@H](C)C(=O)O)c3)cc2)c2ccc(C(=O)N[C@@H](C)c3ccc(C(C)(C)C)cc3)cc12 [US10744117, Compound IA-58]
